In US11865176B2, “Compositions and methods of modulating anti-tumor immunity” (Dana-Farber Cancer Institute, Inc., priority 2016, dated 2024):

Columns and labels:
[1] = tested on: primary human CD4+ T cells; experiment: IL2 ELISA, primary human CD4+ T cells; format: cell-based; details: α-CD3/CD28 and recombinant PD-L1 or control IgG; 100 nM (FIG. 1C)
Procedure: PD-1-overexpressing Jurkat cells as previously published (23) were stimulated with Dynabeads conjugated to α-CD3 (UCHT1), α-CD28 (28.2), and α-PD-1 (clone EH12 from Gordon Freeman) or control IgG at a 4:1 bead:cell ratio in the presence of 1 μM CDK4/6 inhibitor for 18 h. For primary human T cells, normal donor human blood was obtained through DFCI IRB Protocol 04-430. PBMC were isolated using a Ficoll-Paque density gradient, and purified populations of CD4+ T lymphocytes were obtained through a negative magnetic selection kit according to manufacturer's instructions (Miltenyi). […] IL-2 levels in the supernatant were analyzed by AlphaLISA (Perkin Elmers) according to the manufacturer's protocol.

[2] = tested on: tumor infiltrating immune cells; experiment: FACS analysis of lung tumor immune infiltrates, KP GEMM; format: in vivo, mouse
Text: All animal studies were reviewed and approved by the Institutional Animal Care and Use Committee (IACUC) at the Dana-Farber Cancer Institute. The genetically engineered mouse model (GEMM) harboring a conditional activating mutation of endogenous Kras (Kras^LSL-G12D/+) crossed with p53 conditional knockout Trp53^fl/fl has been previously described (36). CRE recombinase was induced through intranasal inhalation of […] adeno-Cre (University of Iowa adenoviral core).
For drug treatment studies in GEMM models, mice were evaluated by MRI imaging to quantify lung tumor burden before and after drug treatment. Mice were treated with either vehicle, or 100 mg/kg trilaciclib or 100 mg/kg palbociclib daily by oral gavage.
Mice were sacrificed, and lungs were perfused using sterile PBS through heart perfusion from the left ventricle after BAL fluid collection. The whole lung was minced into small pieces and digested in collagenase D (Sigma) and Dnase I (Sigma) in Hank's Balanced Salt Solution (HBSS) at 37° C. for 30 min. […] Live cells were determined by LIVE/DEAD® fixable aqua dead cell stain kit (Molecular Probes). The cell pellets were re-suspended in PBS with 2% FBS for Fluorescence-activated cell sorting (FACS) analysis. […] Cells were imaged on BD LSRFortessa (BD Biosciences) and analyzed using FlowJo software (Tree Star).

CDK4/6 = experiment: Kinome profiling (KINOMEscan), selectivity; format: binding; details: compared with abemaciclib
Procedure: Palbociclib and abemaciclib were profiled by DiscoveRx using KINOMEscan (55). Briefly, the two compounds were tested at 100 nM and 1000 nM. Targeted kinases were visualized using the TREEspot™ compound profile visualization tool. Z'LYTE™ kinase assays were conducted for GSK3α and GSK3β at Life Technologies using Km ATP concentrations.

MC38 = MC38 syngeneic colon adenocarcinoma model; format: in vivo, mouse
Procedure: For syngeneic models, MC38 and CT26 cells were injected into 6-8 week C57BL/6 or Balb/c female mice subcutaneously, respectively. Vehicle control, CDK4/6 inhibitors (trilaciclib or palbociclib) were treated alone or together with PD-1 antibody starting at the indicated time point, using an intermittent dosing schedule of 3 days on, 4 days off until experimental endpoint. PD-1 antibody was administered 3 times a week (Monday, Wednesday and Friday) at 200 μg/mouse through I.P. injection.

total splenocytes = experiment: IFNγ production (ELISA) by splenocytes of mice treated in vivo; set-up: species or system mouse; details: tumor-bearing mice, 100 mg/kg IP
Procedure: FIG. 11. Tumor antigen experienced T cells are more sensitive to CDK4/6 inhibition. A. Naive C57BL/6 mice were treated with trilaciclib (100 mg/kg, IP) or vehicle for three days. Two and seven days after the final treatment, splenocytes were isolated and stimulated with α-CD3/CD28 antibodies for 72 hours to measure IFNγ production by ELISA. B. C57BL/6 mice were implanted with B16F10 tumor cells. Seven days post implantation mice were treated with trilaciclib (100 mg/kg, IP) or vehicle for 5 days. Five days post final treatment splenocytes were isolated and stimulated with α-CD3/CD28 antibodies for IFNγ production by ELISA. C. IL-2 production from Tconv (CD4^+CD25^−) cells after trilaciclib treatment. Tconv cells were isolated from either naive or tumor bearing (TMB) mice and treated with trilaciclib at indicated concentrations, in the presence of CD3 and CD28 antibodies. IL-2 production was determined 3 days after the treatment as percentage. (n=3) IFNγ production in CD8^+ T cells alone from naive or TMB mice after treatment with trilaciclib, as shown by percentage (D) or fold change (E). (n=3) F. Increased IFNγ production in CD8+ T cells by trilaciclib in the presence of Tregs. […] IFNγ production was determined 3 days after the treatment as shown as percentage. […]

Structure (SMILES): CN1CCN(c2ccc(Nc3ncc4cc5n(c4n3)C3(CCCCC3)CNC5=O)nc2)CC1 [trilaciclib]
- IL-2 secretion [1]: enhanced IL-2 secretion
- infiltration of CD4+ T cells and, to a lesser degree, CD8+ cells into lung tumors ([2]; KP mice, 100 mg/kg daily for 7 days): increased infiltration
- levels of PD-1 and CTLA-4 in CD4+ and CD8+ T cells ([2]; after treatment, to different extents): reduced
- selectivity for CDK4/6 (CDK4/6): significantly more selective for CDK4/6
- increase in CD4+ IL-2 production (MC38; TILs, trilaciclib added to PD-1 blockade, day 17): ~2 fold
- tumor growth (MC38; intermittent trilaciclib (100 mg/kg, 3 days on, 4 days off) added to PD-1 blockade): nearly eliminated tumor growth
- increase in levels of IFNγ in CD8+ TILs (MC38; trilaciclib added to PD-1 blockade, day 17): ~10 fold
- IFNγ secretion of total splenocytes (total splenocytes): increased IFNγ secretion
